Read-outs that look alike come from different tables or passages of the source.

In this assay the target is T1, IRAK4 (Homo sapiens, UniProt Q9NWZ3).
T1 sequence (Q9NWZ3 1-460): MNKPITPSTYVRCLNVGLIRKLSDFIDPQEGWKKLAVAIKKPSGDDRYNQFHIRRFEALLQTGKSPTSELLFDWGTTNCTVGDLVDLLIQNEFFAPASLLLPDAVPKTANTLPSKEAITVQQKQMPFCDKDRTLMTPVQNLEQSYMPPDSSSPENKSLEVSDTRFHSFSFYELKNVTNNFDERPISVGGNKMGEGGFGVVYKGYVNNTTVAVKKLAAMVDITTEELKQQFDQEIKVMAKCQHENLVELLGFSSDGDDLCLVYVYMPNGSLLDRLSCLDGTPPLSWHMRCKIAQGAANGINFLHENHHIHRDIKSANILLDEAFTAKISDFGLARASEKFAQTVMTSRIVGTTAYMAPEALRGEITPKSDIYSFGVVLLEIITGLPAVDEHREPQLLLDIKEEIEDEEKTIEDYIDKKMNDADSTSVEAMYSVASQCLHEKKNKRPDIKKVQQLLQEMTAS
The experiment in a line: Hibit fluorescence detection of proteolysis (IRAK4-HiBiT in HEK293T cells). Format: cell-based. Also noted: host or cells: HEK293T (ATCC). The procedure: Utilizing HiBiT tag technology, the HiBiT tag-containing sequence (Seq. ID. No. 1, Beijing Tsingke Biotech Co., Ltd.) was connected to the IRAK4 plasmid (Seq. ID. No. 2, Beijing Tsingke Biotech Co., Ltd.), and the plasmid was transfected into HEK293T cells (ATCC). […] The 6-well plate that was incubated overnight was taken out. After the plate was left at room temperature for 15 min, the obtained mixture was added dropwise to the 6-well plate. […] Culture was performed at 37°C and 5% CO2 for 24 h. The 384-well plate was taken out and equilibrated to room temperature. 40 µL of Nano-Glo® HiBiT Lytic Detection System (Promega N3030) was added to each well and incubated at room temperature for 15 min. […] Prism 9.3 software was used to perform fitting analysis for data, and non-linear fitting (non-liner inhibitor (Bell-shaped)) and four parameters (4 parameter) were used, and the parameters was as follows: Span1 = Plateau1−Dip [formula] Span2 = Plateau2−Dip [formula] Section1 = Span1/(1+10^(∧)((LogEC50_1−X)*nH1)) [formula] Section2 = Span2/(1+10^(∧)((X−LogEC50_2)*nH2)) [formula]
The equation was as follows: Y=Dip+Section1+Section2. • Seq. ID. No. 1 ([…]), other DNA, synthetic construct, sequence length 33; • Seq. ID. No. 2 [formula]
In general terms: With HiBiT, luminescence reflects the tagged protein that the partner subunit can reach.

Where [1] appears, read: IRAK4-HiBiT, HEK293T cells, 24 h.
Where [2] appears, read: IRAK4-HiBiT, HEK293T cells, 24 h, read-out: DC50.

`C[C@@H]1CN(C[C@H]2CC[C@H](n3cc(-n4cc(-c5ccc6cc(C(N)=O)cnn56)nn4)c(C(F)F)n3)CC2)CCN1c1cccc2c1n(C)c(=O)n2C1CCC(=O)NC1=O` (stereo partly drawn) [Example 51, 7-(1-(3-(difluoromethyl)-1-((1R,4r)-4-(((3R)-4-(1-(2,6-dioxopiperidin-3-yl)-3-methyl-2-oxo-2,3-dihydro-1H-benzo[d]imidazol-4-yl)-3-methylpiperazin-1-yl)methyl)cyclohexyl)-1H-pyrazol-4-yl)-1H-1,2,3-triazol-4-yl)pyrrolo[1,2-b]pyridazine-3-carboxamide] came in with a Dmax (HEK-293T) greater than 80%. Under setting [1], the DC50 is less than 0.5 nM. The molecule `Cn1c(=O)n(C2CCC(=O)NC2=O)c2cccc(N3CCN(C4CCN(C[C@H]5CC[C@H](n6cc(-n7cc(-c8cnn9ccc(N[C@H]%10CCCC[C@H]%10O)nc89)nn7)c(C(F)F)n6)CC5)CC4)CC3)c21` (stereo partly shown) [Example 149] came in with a Dmax (HEK-293T) greater than 80%. The molecule also yielded a DC50 under setting [1] of less than 0.5 nM. In the case of `Cn1c(=O)n(C2CCC(=O)NC2=O)c2cccc(N3CCC4(CCN(C[C@H]5CC[C@H](n6cc(-n7cc(-c8cnn9cc(C#N)cnc89)nn7)c(C(F)F)n6)CC5)C4)CC3)c21` (stereo partly shown) [Compound 189], the Dmax (HEK-293T) lay within 60 to 70%. The DC50 under setting [2] is 0.5 to 1 nM. `Cl.Cn1c(=O)n(C2CCC(=O)NC2=O)c2cccc(N3CCN(C4CCN(C[C@H]5CC[C@H](n6cc(-n7cc(-c8cnn9ccc(N%10CCNCC%10)nc89)nn7)c(C(F)F)n6)CC5)CC4)CC3)c21` (stereo partly shown) [Example 131]: the Dmax result under setting [1] is reported as “A (Dmax ≥ 80%)”. For the setting “HEK-293T”, `Cn1c(=O)n(C2CCC(=O)NC2=O)c2cccc(N3CCN(C4CCN(C[C@H]5CC[C@H](n6cc(-n7cc(-c8cnn9ccc(N%10CCC(O)CC%10)nc89)nn7)c(C(F)F)n6)CC5)CC4)CC3)c21` (stereo partly shown) [Example 138] returned a Dmax greater than 80%. For the same molecule, the DC50 under setting [1] was less than 0.5 nM. For `Cn1c(=O)n(C2CCC(=O)NC2=O)c2cccc(N3C4CCC3CN(C[C@H]3CC[C@H](n5cc(-n6cc(-c7cnn8ccc(N9CCOCC9)nc78)nn6)c(C(F)F)n5)CC3)C4)c21` (stereo partly shown) [Example 48, 3-(4-((1r,4r)-4-(3-(difluoromethyl)-4-(4-(5-morpholinopyrazolo[[1,5-a]pyrimidin-3-yl)-1H-1,2,3-triazol-1-yl)-1H-pyrazol-1-yl)cyclohexyl)-3,8-diazabicyclo[3.2.1]oct-8-yl)-3-methyl-2-oxo-2,3-dihydro-1H-benzo[d]imidazol-1-yl)piperidine-2,6-dione], in that order: 60 to 70% and greater than 5 nM. As for `Cn1c(=O)n(C2CCC(=O)NC2=O)c2cccc(N3CCC4(CCN(CC5CCC(n6cc(-n7cc(-c8cnn9ccc(N%10CCC(O)CC%10)nc89)nn7)c(C(F)F)n6)CC5)CC4)C3)c21` (stereo not shown) [Example 137, 3-(4-(8-(((1r,4r)-4-(3-(difluoromethyl)-4-(4-(5-(4-hydroxypiperidin-1-yl))pyrazolo[1,5-a]pyrimidin-3-yl)-1H-1,2,3-triazol-1-yl)-1H-pyrazol-1-yl)cyclohexyl)methyl)-2,8-diazaspiro[4.5]dec-2-yl)-3-methyl-2-oxo-2,3-dihydro-1H-benzo[d]imidazol-1-yl)piperidine-2,6-dione], the Dmax result under setting [1] is given as “A (Dmax ≥ 80%)”. Further, the DC50 under setting [2] was less than 0.5 nM. The molecule `O=C1CCC(N2C(=O)c3ccc(N4CC(CN5CCC(n6cc(-n7cc(-c8cnn9ccc(N%10CCOCC%10)nc89)nn7)c(C(F)F)n6)CC5)C4)cc3C2=O)C(=O)N1` (stereo not shown) [Example 78] displayed a Dmax (HEK-293T) of 70 to 80%. The same molecule gave a DC50 under setting [1] of 1 to 5 nM. `Cn1c(=O)n(C2CCC(=O)NC2=O)c2cccc(N3CCC4(CCN(C[C@H]5CC[C@H](n6cc(-n7cc(-c8cnn9ccc(N%10CCC(C)(O)CC%10)nc89)nn7)c(C(F)F)n6)CC5)CC4)CC3)c21` (stereo partly shown) [Example 121] returned a Dmax (HEK-293T) greater than 80%. Besides, the DC50 under setting [1] is less than 0.5 nM.

Where the note is “HEK-293T”, `Cn1c(=O)n(C2CCC(=O)NC2=O)c2cccc(N3CCC4(CCN(C[C@H]5CC[C@H](n6cc(-n7cc(-c8ccc9cc(C(N)=O)cnn89)nn7)c(C(F)F)n6)CC5)C4)C3)c21` (stereo partly shown) [Example 80, 7-(1-(3-(difluoromethyl)-1-((1r,4r)-4-(7-(1-(2,6-dioxy-3-yl)-3-methyl-2-oxo-2,3-dihydro-1H-benzo[d]imidazol-4-yl)-2,7-diazaspiro[4.4]non-2-yl)methyl)-1H-pyrazol-4-yl)-1H-1,2,3-triazol-4-yl)pyrrolo[1,2-b]pyridazine-3-carboxamide] registered a Dmax greater than 80%. Under setting [1], this molecule gave a DC50 of less than 0.5 nM. As to `Cn1c(=O)n(C2CCC(=O)NC2=O)c2cccc(CN3CCN(C[C@H]4CC[C@H](n5cc(-n6cc(-c7ccc8cc(C(N)=O)cnn78)nn6)c(C(F)F)n5)CC4)CC3)c21` (stereo partly shown) [Example 68], the Dmax (HEK-293T) was greater than 80%. For the same molecule, under setting [1], the DC50 is less than 0.5 nM. With `C[C@H]1CN(c2cccc3c2n(C)c(=O)n3C2CCC(=O)NC2=O)CCN1C[C@H]1CC[C@H](n2cc(-n3cc(-c4cnn5ccc(N6CCOCC6)nc45)nn3)c(C(F)F)n2)CC1` (stereo partly shown) [Example 52], the Dmax (HEK-293T) fell in the range of 70 to 80%. In addition, under setting [1], the DC50 is 0.5 to 1 nM. Where the note is “HEK-293T”, `Cn1c(=O)n(C2CCC(=O)NC2=O)c2cccc(N3CCC4(CCN(C[C@H]5CC[C@H](n6cc(-n7cc(-c8cnn9cc(C#N)cnc89)nn7)c(C(F)F)n6)CC5)CC4)C3)c21` (stereo partly shown) [Compound 202] yielded a Dmax of less than 60%. Further, under setting [2], the DC50 is 0.5 to 1 nM.

With `C[C@H]1CN(c2cccc3c2n(C)c(=O)n3C2CCC(=O)NC2=O)CCN1C[C@H]1CC[C@H](n2cc(-n3cc(-n4ccc5cc(C(N)=O)cnc54)nn3)c(C(F)F)n2)CC1` (stereo partly shown) [Example 156], under “HEK-293T”, the Dmax was greater than 80%. The same molecule registered a DC50 under setting [1] of less than 0.5 nM.

Under “HEK-293T”, `Cn1c(=O)n(C2CCC(=O)NC2=O)c2cccc(N3CCC4(CCN(C[C@H]5CC[C@H](n6cc(-n7cc(-c8cnn9ccc(N%10CC%11(COC%11)C%10)nc89)nn7)c(C(F)F)n6)CC5)CC4)CC3)c21` (stereo partly shown) [Compound 223] gave a Dmax greater than 80%. Besides, the DC50 under setting [2] was less than 0.5 nM.

Under “HEK-293T”, `Cn1c(=O)n(C2CCC(=O)NC2=O)c2cccc(C#CC3CCN(C[C@H]4CC[C@H](n5cc(-n6cc(-c7ccc8cc(C(N)=O)cnn78)nn6)c(C(F)F)n5)CC4)CC3)c21` (stereo partly shown) [Example 79] returned a Dmax of 70 to 80%. Further, the DC50 under setting [1] lay within 0.5 to 1 nM. For the molecule `Cn1c(=O)n(C2CCC(=O)NC2=O)c2cccc(N3CCN(C4CCN(C[C@H]5CC[C@H](n6cc(-n7cc(-c8cnn9ccc(N%10CCOCC%10)nc89)nn7)c(C(F)F)n6)CC5)CC4)CC3)c21` (stereo partly shown) [Example 40], the Dmax (HEK-293T) is greater than 80%. The molecule further registered a DC50 under setting [1] of less than 0.5 nM. For `C[C@@H]1CN(c2cccc3c2n(C)c(=O)n3C2CCC(=O)NC2=O)CCN1C[C@H]1CC[C@H](n2cc(-n3cc(-c4cnn5ccc(N6CCOCC6)nc45)nn3)c(C(F)F)n2)CC1` (stereo partly shown) [Example 50], in that order: 60 to 70% and 0.5 to 1 nM. For `Cn1c(=O)n(C2CCC(=O)NC2=O)c2cccc(NC3CCN(C[C@H]4CC[C@H](n5cc(-n6cc(-c7ccc8cc(C(N)=O)cnn78)nn6)c(C(F)F)n5)CC4)CC3)c21` (stereo partly shown) [Example 66, 7-(1-(3-(difluoromethyl)-1-((1r,4r)-4-((4-((1-(2,6-dioxopiperidin-3-yl)-3-methyl-2-oxo-2,3-dihydro-1H-benzo[d]imidazol-4-yl)amino)piperidin-1-yl)methyl)cyclohexyl)-1H-pyrazol-4-yl)-1H-1,2,3-triazol-4-yl)pyrrolo[1,2-b]pyridazine-3-carboxamide], in that order: 70 to 80% and less than 0.5 nM.

For the origin of these results see patent EP4759807A1, “PROTEOLYSIS TARGETING CHIMERA COMPOUND FOR DEGRADING IRAK4 AND USE THEREOF” (Shenzhen Zhongge Biological Technology Co., Ltd., priority 2023, dated 2025).
